Earlier results on six compounds are cited in patent US20070026087A1 (priority 2003, published 2007).

The subject of data set [1] is HSV (herpes simplex virus)-1. To be noted: Thurman & Gerba 1989.
Data set [2] relates to HSV (herpes simplex virus)-2. The conditions noted are these: Thurman & Gerba 1989.
The test system of the next data set is Vacciniavirus. The conditions noted are these: Thurman & Gerba 1989.
The next data set concerns Adenovirus. To be noted: Thurman & Gerba 1989.
The next data set concerns HVJ. The conditions noted are these: Thurman & Gerba 1989.
[3] abbreviates: reported, effective only temporarily.

Read-outs that look alike come from different tables or passages of the source.

Consider `O=[N+]([O-])[O-].[Ag+]` [silver nitrate], for which the “efficacy against HSV-1” value in data set [1] was “effective”. In addition, the “efficacy against HSV-2” value in data set [2] is “effective”. Further, in the data set on Vacciniavirus, the “efficacy against Vacciniavirus” value is given as “not effective”. The “efficacy against Adenovirus” value in the data set on Adenovirus is recorded as “not effective”. In the data set on VSV, the “efficacy against VSV” value is recorded as “not effective”. Moreover, in the data set on Poliovirus, the “efficacy against Poliovirus” value was “not effective”. The “efficacy against HVJ” value with HVJ is listed as “not effective”.

Turning to `CCO` [ethanol], the “efficacy as disinfectant against SARS coronavirus” value (shortened to “efficacy as disinfectant”) in the data set on SARS coronavirus (setting [3]) is listed as “effective”.

As to `O=CCCCC=O` [glutaraldehyde], in the data set with SARS coronavirus (setting [3]), the “efficacy as disinfectant” value was “effective”.

In the case of `C1CO1` [ethylene oxide gas, ethylene oxide], in the data set on SARS coronavirus (setting [3]), the “efficacy as disinfectant” value is recorded as “effective”.

With `CC(=O)OO` [peracetic acid], the “efficacy as disinfectant” value in the data set on SARS coronavirus was “effective”.

`OCl` [sodium hypochlorite]: in the data set with SARS coronavirus (setting [3]), the “efficacy as disinfectant” value was “effective”.
